The results in this text go back to patent US11834458B2, “Anti-cancer nuclear hormone receptor-targeting compounds” (Nuvation Bio Inc., priority 2021, dated 2023).

For test [1], the system named is MDAMB361 cells. The test is described as follows: Cell viability assay, MDAMB361. As to conditions: Homo sapiens. The class given is cell-based. How it is done:
(§1) Cell viability assay: LNCap, 22Rv1, MCF7, MDAMB361, T47D, and IEC6 cells are seeded at a density of 500-2000 cells/well in 96 well plates, and a ‘T0’ (timepoint 0) was included along with the assay plate. The plates are then incubated at 37° C., 5% CO2 in a cell culture incubator overnight. On the next day, the ‘T0’ plate was assayed using CellTiterGlo (Promega, Inc) according to the manufacturer's instructions. The appropriate compounds are diluted in DMSO and added to the assay plate (final DMSO concentration of 0.1-0.2%) on the next day. The assay plates are incubated for 6 days at 37° C., 5% CO2. After the incubation period, the plates are assayed using CellTiterGlo (Promega, Inc) according to the manufacturer's instructions and luminescence was read on the EnVision plate reader. Inhibition of the tested compounds was determined by the following formula: Inhibition rate (%)=(1−(RLU compound−RLU day0)/(RLU control−RLU day0))*100%. GraphPadPrism was used to analyze the data and determine GI50/IC50 values.

Test [2] deals with MCF7 cells. The test is described as follows: Cell viability assay, MCF7. The settings on record: Homo sapiens. The test is classed as cell-based. How it is done:
as §1

Test [3] addresses ER Alpha-ligand binding domain (LBD) (Homo sapiens (Human), UniProt P03372). The test is described as follows: ER binding assay (LanthaScreen TR-FRET ER Alpha Competitive Binding). The settings on record: Fluormone ES2 Green tracer 3 nM, 2 h room temperature. As to the method: ER binding assay: ERα binding was assessed using the LanthaScreen® TR-FRET ER Alpha Competitive Binding kit from ThermoFisherScientific. In this assay, a terbium-labeled anti-GST antibody was used to indirectly label GST-tagged ER Alpha-ligand binding domain (LBD) by binding to its GST tag. Competitive binding to the ER Alpha-LBD (GST) was detected by a test compound's ability to displace a fluorescent ligand (Fluormone™ ES2 Green tracer) from the ER Alpha-LBD (GST), which results in a loss of FRET signal between the Tb-anti-GST antibody and the tracer. Briefly, to assess ER binding of the DDC compounds, the test compounds (top dose 10 μM, 4 fold serial dilution, 8 point dose response) and controls were transferred to the assay plate. The Fluormone™ ES2 Green tracer (3 nM final concentration with assay buffer) was added to the assay plate. This was followed by addition of a mixture of the ER Alpha-LBD (GST) and terbium anti-GST antibody. After a 2 h incubation period at room temperature, the plate was read on the Envision plate reader and the TR-FRET ratio of 520:495 emissions were calculated and used to determine the IC50 from a dose response curve of the compound.
On the technique in general: In TR-FRET formats the signal depends on donor and acceptor labels being close together.

Test [4] concerns the target ER (Homo sapiens (Human), UniProt P03372). The test is described as follows: ER antagonism assay. The test is classed as cell-based. As to conditions: SK-BR-3 cells transfected with ERE plasmid and ER, 100 nM β-Estradiol, 24 h. As to the method:
ER antagonism assay: To evaluate ER antagonist activity, SK-BR-3 cells were seeded at a density of 30000 cells/well in the assay plate. The assay plate was then incubated at 37° C., 5% CO2 for 24 h. A mixture of ERE plasmid and ER in opti-MEM media was incubated with lipofectamine 3000 in Opti-MEM media and incubated at room temperature for 15 mins. 10 μl of this transfection mix was added to each well of the assay plate and the assay plate was incubated at 37° C., 5% CO2 for 24 h. 100 nM β-Estradiol in 10 μL medium or 10 μL medium (control wells) was added to corresponding wells of assay plate and incubated at 37° C. 5% CO2 for 24 h. After the incubation period, 50 μl of Dual-glo luciferase reagent was added to the assay plate and mixed at room temperature for 20 mins on an orbital shaker, before reading out on the EnVision plate reader. 50 μL of Stop & Glo reagent was added to assay plate, mixed at room temperature for 20 minutes, and read on the Envision plate reader.

In test [5] the test system is IEC6 cells. The test is described as follows: Cell viability assay, IEC6. The test is classed as cell-based. The settings on record: Rattus norvegicus. As to the method:
as §1

In test [6] the test system is LNCap cells. The test is described as follows: Cell viability assay, LNCap. As to conditions: Homo sapiens, 144 h. The class given is cell-based. How it is done:
as §1

In test [7] the test system is T47D cells. The test is described as follows: Cell viability assay, T47D. The test is classed as cell-based. The settings on record: Homo sapiens, 144 h. How it is done: as §1
[8] abbreviates: MDA-MB-361, 144 h, read-out: MDA-MB-361 (GI50, nM).
Where [9] appears, read: MCF7, 144 h, read-out: MCF7 (GI50, nM).
The mark [10] stands for this setting: IEC-6, 144 h, read-out: IEC-6 (IC50, nM).
Setting [11] is: LNCaP, read-out: LNCap (GI50, nM).
Setting [12] is: T47D, read-out: T47D (GI50, nM).

Like-named read-outs stand apart in the source and are kept apart here. Where only a bound is given, the exact number is not on record here.

Sequence of ER Alpha-ligand binding domain (LBD) (P03372 whole entry, looked up, the tested form may be a part): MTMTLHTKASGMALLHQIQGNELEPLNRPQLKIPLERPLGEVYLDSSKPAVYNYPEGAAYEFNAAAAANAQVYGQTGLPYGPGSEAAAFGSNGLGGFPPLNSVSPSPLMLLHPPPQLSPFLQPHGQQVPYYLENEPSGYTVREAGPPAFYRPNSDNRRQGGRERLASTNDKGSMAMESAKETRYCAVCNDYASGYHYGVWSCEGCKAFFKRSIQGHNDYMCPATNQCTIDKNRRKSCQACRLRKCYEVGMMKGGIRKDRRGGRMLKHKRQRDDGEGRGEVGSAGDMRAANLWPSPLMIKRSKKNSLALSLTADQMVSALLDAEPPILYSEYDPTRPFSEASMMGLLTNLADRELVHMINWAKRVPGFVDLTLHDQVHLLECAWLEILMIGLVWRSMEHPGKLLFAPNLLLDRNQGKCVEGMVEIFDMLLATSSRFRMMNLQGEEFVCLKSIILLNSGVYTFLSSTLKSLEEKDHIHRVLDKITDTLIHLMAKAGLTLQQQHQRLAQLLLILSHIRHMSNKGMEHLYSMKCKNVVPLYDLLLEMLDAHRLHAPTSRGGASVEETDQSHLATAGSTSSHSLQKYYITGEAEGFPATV
Sequence of ER (P03372 whole entry, looked up): as the sequence (P03372 whole entry, looked up, the tested form may be a part) above

Regarding `CCc1c2c(nc3ccc(OC(=O)N4CCN(C(=O)CCCCCOc5cc(F)c([C@@H]6c7[nH]c8ccccc8c7C[C@@H](C)N6CC(C)(C)F)c(F)c5)CC4)cc13)-c1cc3c(c(=O)n1C2)COC(=O)[C@]3(O)CC` [Compound 1, (S)-4,11-diethyl-4-hydroxy-3,14-dioxo-3,4,12,14-tetrahydro-1H-pyrano[3′,4′:6,7]indolizino[1,2-b]quinolin-9-yl 4-(6-(3,5-difluoro-4-((1R,3R)-2-(2-fluoro-2-methylpropyl)-3-methyl-2,3,4,9-tetrahydro-1H-pyrido[3,4-b]indol-1-yl)phenoxy)hexanoyl)piperazine-1-carboxylate], the GI50 in test [1] (setting [8]) and in test [2] (setting [9]) was 10 to 500 nM throughout. The IC50 (as a rule, the point on the concentration scale where inhibition reaches its midpoint) in test [3] is < 10 nM; in test [4] it was 10 to 500 nM.

As for `CC[C@@]1(O)C(=O)OCc2c1cc1n(c2=O)Cc2cc3c(COC(C)(C)C)c(OC(=O)N4CCN(CCCCCCN(C)c5ccc([C@H]6C[C@@]7(C)[C@@H](CC[C@]7(OC(C)=O)C(C)=O)[C@@H]7CCC8=CC(=O)CCC8=C76)cc5)CC4)ccc3nc2-1` [Compound 17, (S)-10-(tert-Butoxymethyl)-4-ethyl-4-hydroxy-3,14-dioxo-3,4,12,14-tetrahydro-1H-pyrano[3′,4′:6,7]indolizino[1,2-b]quinolin-9-yl 4-(6-((4-((8S,11R,13S,14S,17R)-17-acetoxy-17-acetyl-13-methyl-3-oxo-2,3,6,7,8,11,12,13,14,15,16,17-dodecahydro-1H-cyclopenta[a]phenanthren-11-yl)phenyl)(methyl)amino)hexyl)piperazine-1-carboxylate], the GI50 in test [1] (setting [8]), in test [2] (setting [9]), in test [6] (setting [11]) and in test [7] (setting [12]) was > 1000 nM throughout. Further, in test [5] (setting [10]), the IC50 was > 1000 nM.

As for `CC[C@@]1(O)C(=O)OCc2c1cc1n(c2=O)Cc2cc3c(CN4CCN(C(=O)CCCCCN(C)c5ccc([C@H]6C[C@@]7(C)[C@@H](CC[C@]7(OC(C)=O)C(C)=O)[C@@H]7CCC8=CC(=O)CCC8=C76)cc5)CC4)c(O)ccc3nc2-1` [Compound 19, (8S,11R,13S,14S,17R)-17-Acetyl-11-(4-((6-(4-(((S)-4-ethyl-4,9-dihydroxy-3,14-dioxo-3,4,12,14-tetrahydro-1H-pyrano[3′,4′:6,7]indolizino[1,2-b]quinolin-10-yl)methyl)piperazin-1-yl)-6-oxohexyl)(methyl)amino)phenyl)-13-methyl-3-oxo-2,3,6,7,8,11,12,13,14,15,16,17-dodecahydro-1H-cyclopenta[a]phenanthren-17-yl Acetate], the GI50 (in general, the concentration at which growth is held to half of that of the control) in test [1] (144 h, MDA-MB-361 cells, 6 days, CellTiterGlo, read-out: MDA-MB-361 (GI50)) was in the range of 10 to 500 nM; in test [2] (144 h, MCF7 cells, 6 days, CellTiterGlo, read-out: MCF7 (GI50)), 10 to 500 nM; in test [6] (LNCap cells, 6 days, CellTiterGlo, read-out: LNCap (GI50)), 10 to 500 nM; in test [7] (T47D cells, 6 days, CellTiterGlo, read-out: T47D (GI50)), 10 to 500 nM. In test [5] (144 h, IEC-6 cells, 6 days, CellTiterGlo, read-out: IEC-6 (IC50)), the IC50 was > 1000 nM.

In the case of `CCc1c2c(nc3ccc(OC(=O)N4CCN(CCCCCCOc5cc(F)c([C@@H]6c7[nH]c8ccccc8c7C[C@@H](C)N6CC(C)(C)F)c(F)c5)CC4)cc13)-c1cc3c(c(=O)n1C2)COC(=O)[C@]3(O)CC` [Compound 2, (S)-4,11-diethyl-4-hydroxy-3,14-dioxo-3,4,12,14-tetrahydro-1H-pyrano[3′,4′:6,7]indolizino[1,2-b]quinolin-9-yl 4-(6-(3,5-difluoro-4-((1R,3R)-2-(2-fluoro-2-methylpropyl)-3-methyl-2,3,4,9-tetrahydro-1H-pyrido[3,4-b]indol-1-yl)phenoxy)hexyl)piperazine-1-carboxylate], the GI50 in test [1] (setting [8]) and in test [2] (setting [9]) was 10 to 500 nM each time. For the same compound, the IC50 is < 10 nM in test [3] and 10 to 500 nM in test [4].

Consider `CC[C@@]1(O)C(=O)OCc2c1cc1n(c2=O)Cc2cc3c(CN(C)C)c(OC(=O)N4CCN(CCCCCCOc5cc(F)c(C6c7[nH]c8ccccc8c7CC(C)N6CC(C)(C)F)c(F)c5)CC4)ccc3nc2-1` (stereo in doubt) [Compound 13, (S)-10-((Dimethylamino)methyl)-4-ethyl-4-hydroxy-3,14-dioxo-3,4,12,14-tetrahydro-1H-pyrano[3′,4′:6,7]indolizino[1,2-b]quinolin-9-yl 4-(6-(3,5-difluoro-4-((1S,3S)-2-(2-fluoro-2-methylpropyl)-3-methyl-2,3,4,9-tetrahydro-1H-pyrido[3,4-b]indol-1-yl)phenoxy)hexyl)piperazine-1-carboxylate], for which the GI50 in test [1] (setting [8]) and in test [2] (setting [9]) was 10 to 500 nM throughout. In addition, the IC50 in test [5] (setting [10]) fell in the range of 501 to 1000 nM; in test [3], 10 to 500 nM; in test [4], 10 to 500 nM.

As to `CC[C@@]1(O)C(=O)OCc2c1cc1n(c2=O)Cc2cc3c(CN(C)C)c(OC(=O)N4[C@H](C)CN(CCCCCCN(C)c5ccc([C@H]6C[C@@]7(C)[C@@H](CC[C@]7(OC(C)=O)C(C)=O)[C@@H]7CCC8=CC(=O)CCC8=C76)cc5)C[C@H]4C)ccc3nc2-1` [Compound 16, (S)-10-((Dimethylamino)methyl)-4-ethyl-4-hydroxy-3,14-dioxo-3,4,12,14-tetrahydro-1H-pyrano[3′,4′:6,7]indolizino[1,2-b]quinolin-9-yl (2R,6R)-4-(6-((4-((8S,11R,13S,14S,17R)-17-acetoxy-17-acetyl-13-methyl-3-oxo-2,3,6,7,8,11,12,13,14,15,16,17-dodecahydro-1H-cyclopenta[a]phenanthren-11-yl)phenyl)(methyl)amino)hexyl)-2,6-dimethylpiperazine-1-carboxylate], the GI50 in test [1] (setting [8]) was > 1000 nM; in test [2] (setting [9]) it was 10 to 500 nM; in test [6] (setting [11]) it was 501 to 1000 nM; in test [7] (setting [12]), 10 to 500 nM. Besides, in test [5] (setting [10]), the IC50 is > 1000 nM.
